The values below come from EPA's ToxValDB 9.5 (doi:10.2903/j.efsa.2016.4419).

The test system of one series is Rattus norvegicus. Conditions: for LD50: acute, mortality.
Another series concerns Mus musculus. The conditions noted are these: reproduction developmental; organ weight.
For another series, the system named is Apis mellifera. Conditions: acute, mortality.
The test system of the next series is Pimephales promelas. Conditions: chronic/long-term; duration: 36 days; clinical signs.
The test system of another series is Lepomis macrochirus. The conditions noted are these: acute; duration: 96 hours; mortality.
In a further series the test system is Oncorhynchus mykiss. Conditions: acute; duration: 96 hours; mortality.
The subject of the next series is Folsomia candida. Conditions: chronic/long-term; duration: 14 days; reproduction.
The next series concerns Colinus virginianus. Conditions: acute, oral, mortality.
The subject of a further series is Daphnia pulex. Conditions: chronic/long-term; duration: 21 days; reproduction.

Each structure is given as a SMILES string.

Broadly, the NOAEL is the highest tested level that showed no adverse finding.

`CS(=O)(=O)c1ccc(C(=O)O)c(N)c1` [2-Amino-4-(methylsulfonyl)benzoic acid] gave an LD50 with Rattus norvegicus of over 5000 mg/kg.
Consider `CS(=O)(=O)c1ccc(C(=O)C2C(=O)CCCC2=O)c([N+](=O)[O-])c1` [Mesotrione], for which the LC50 in the series on Tagia sp. (acute, mortality) was over 2000 mg/kg; in the series on Lepomis macrochirus, over 120 µg/mL; in the series with Oncorhynchus mykiss, over 120 µg/mL; with Colinus virginianus (diet) it was over 5200 mg/kg; with Anas platyrhynchos (short-term, oral, feed, mortality) it was over 5200 mg/kg. The NOEC in the series on Tagia sp. (chronic/long-term, reproduction) came out at 10.8 mg/kg; in the series with Pimephales promelas it was 12.5 mg/L; in the series on Folsomia candida it was 50.5 mg/kg; in the series with Daphnia pulex it was 180 mg/L. This compound also returned an NOAEL in the series with Mus musculus of 2 mg/kg-day. For the same compound, the LD50 is 52.5 µg/piece with Apis mellifera (dermal); over 11 µg/piece with Apis mellifera (oral, unspecified); over 5000 mg/kg in the series on Rattus norvegicus (oral); over 2000 mg/kg with Colinus virginianus. Further, the NOEL is 0.3 mg/kg-day in the series on Rattus norvegicus (reproduction developmental, organ weight) and 20.6 mg/kg-day in the series with Anas platyrhynchos (reproductive).
